In the NIST ThermoML archive (doi:10.1021/je500380x):

Assay: mn = molality of the nth substance listed, in mol/kg
Details: 100 kPa, Liquid; for viscosity: Falling or rolling sphere viscometry; for mass density: Vibrating tube method; for electrical conductivity: Alternating current cell with electrodes

CCC(=O)OCCN1CCNCC1 [2-(piperazin-1-yl)ethyl propionate] + CO
Details	electrical conductivity, 313.15 K [S/m]	electrical conductivity, 318.15 K [S/m]	mass density, 308.15 K [kg/m3]	mass density, 313.15 K [kg/m3]	viscosity, 308.15 K [mPa·s]	viscosity, 313.15 K [mPa·s]
m1 = 0.05	0.142	0.145	780.29	775.51	–	0.484
m1 = 0.1001	0.238	0.243	783.39	778.61	–	0.494
m1 = 0.2006	0.384	0.395	789.53	784.77	–	0.522
m1 = 0.3003	0.498	0.511	795.62	790.88	–	0.552
m1 = 0.3995	0.586	0.604	801.72	797	–	0.585
m1 = 0.5005	0.661	0.685	807.84	803.15	–	0.623
m1 = 0.6006	0.729	0.754	814.12	809.45	–	0.664
m1 = 0.7007	0.779	0.806	820.37	815.73	–	0.706
m1 = 0.8007	0.823	0.855	826.54	821.92	–	0.76
m1 = 0.9008	0.857	0.891	832.74	828.14	–	0.815
m1 = 1.001	0.898	0.936	838.83	834.22	0.949	0.878
m1 = 1.2	0.931	0.975	851.28	846.77	1.098	1.012
m1 = 1.401	0.948	0.994	864.42	859.97	1.305	1.197
m1 = 1.6	0.941	0.995	876.97	872.59	1.56	1.425
m1 = 1.801	0.918	0.971	890.31	885.98	1.895	1.723
m1 = 2	0.873	–	903.56	899.28	2.346	2.12
m1 = 2.203	0.82	–	917.48	913.27	2.912	2.614
m1 = 2.403	0.751	–	930.52	926.52	3.753	3.343
m1 = 2.603	0.674	–	943.48	939.34	4.841	4.274
m1 = 2.803	0.599	–	956.73	952.7	6.372	5.571
m1 = 3.001	–	–	970.42	966.46	8.863	7.662
m1 = 3.006	0.534	–	–	–	–	–
